Data reported in patent US11254965B2 (priority 2015, dated 2022).
Like-named read-outs stand apart in the source and are kept apart here.

Assays:
[1] = tested on: CLso; format: cell-based, Candidatus Liberibacter solanacearum; conditions: 48 h treatment, CLso-potato hairy roots
[2] = tested on: Lso; format: cell-based, Candidatus Liberibacter solanacearum; conditions: 100 mg/L penicillin

Molecule: CC/C=C\CC1C(=O)CCC1CC(=O)OC (stereo not shown) [methyl-JA, methyl jasmonate]
- relative CLso titers versus DMSO control ([1]; 10 uM): suppressed CLso
- relative CLso titers versus DMSO control ([1]; 10 uM, listed as methyl-jasmonate): decreased CLso titers

Molecule: penicillin
- relative CLso titers versus DMSO control ([1]; 100 ppm): significantly suppressed CLso titers
- relative CLso titers versus DMSO control ([1]; 100 ppm, listed as Penicillin): decreased CLso titers
- Lso titer versus Lso colonized hairy roots not exposed ([2]; 2 days of exposure): significantly lower titer of Lso
- Lso titer versus Lso colonized hairy roots not exposed ([2]; 7 days of exposure): significantly lower titer of Lso

Molecule: O=C(O)c1ccccc1O [salicylic acid]
- relative CLso titers versus DMSO control ([1]; 100 uM): no significant effect
